Results published in PubChem BioAssay AID248 (DTP/NCI, 2004).
Values joined by “and” are separate entries in the source; they are usually repeats but may differ in a detail not shown here. Equal values may be shown once. Toxic doses and inconclusive results are not listed. Rule as the data show it: active = T/C of 150% or more; inactive = T/C below 125%. Square brackets hold non-standard residues; d marks the D form. Peptide text beside a SMILES is read from it. ξ: configuration not given here. ξF = NC(Cc1ccccc1)C(=O)O

Test system: L1210 leukemia ip in BDF1 mice, survival T/C
Experiment: NCI In Vivo Anticancer Drug Screen. Data for tumor model L1210 Leukemia (intraperitoneal) in B6D2F1 (BDF1) mice
Settings: endpoint: mean survival time, higher = longer survival
How it was run: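 Read-out is survival time, reported as the treated-group measurement over the vehicle-control measurement.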

[1] = dose: 100.0 mg/kg/injection, schedule: Q01DX009 (ip), vehicle: Klucel (hydroxypropylcellulose) (HPC)
[2] = dose: 200.0 mg/kg/injection, schedule: Q01DX009 (ip), vehicle: Klucel (hydroxypropylcellulose) (HPC)
[3] = dose: 400.0 mg/kg/injection, schedule: Q01DX009 (ip), vehicle: Klucel (hydroxypropylcellulose) (HPC)
[4] = dose: 100.0 mg/kg/injection, schedule: Q01DX009 (ip), vehicle: saline
[5] = dose: 100.0 mg/kg/injection, schedule: Q04DX003 (ip), vehicle: saline
[6] = dose: 200.0 mg/kg/injection, schedule: Q04DX003 (ip), vehicle: saline
[7] = dose: 400.0 mg/kg/injection, schedule: Q01DX009 (ip), vehicle: saline
[8] = dose: 400.0 mg/kg/injection, schedule: Q04DX003 (ip), vehicle: saline
[9] = dose: 100.0 mg/kg/injection, schedule: Q04DX003 (ip), vehicle: saline with Tween-80
[10] = dose: 200.0 mg/kg/injection, schedule: Q04DX003 (ip), vehicle: saline with Tween-80
[11] = dose: 400.0 mg/kg/injection, schedule: Q04DX003 (ip), vehicle: saline with Tween-80
[12] = dose: 25.0 mg/kg/injection, schedule: Q01DX009 (ip), vehicle: water
[13] = dose: 50.0 mg/kg/injection, schedule: Q01DX009 (ip), vehicle: water
[14] = dose: 100.0 mg/kg/injection, schedule: Q01DX001 (ip), vehicle: saline
[15] = dose: 200.0 mg/kg/injection, schedule: Q01DX001 (ip), vehicle: saline
[16] = dose: 400.0 mg/kg/injection, schedule: Q01DX001 (ip), vehicle: saline

Measured: T/C

CC(C)OC(=O)Cc1cccc2ccccc12
inactive: dose: 222.0 mg/kg/injection, schedule: Q01DX Z (ip), vehicle: saline 98 % of control | dose: 333.0 mg/kg/injection, schedule: Q01DX Z (ip), vehicle: saline 88 % of control | dose: 500.0 mg/kg/injection, schedule: Q01DX Z (ip), vehicle: saline 95 % of control

COC(=O)N/N=C/c1cccnc1
inactive: [1] 103 % of control | [2] 103 % of control | [3] 111 % of control

NCC(=O)NCC(=O)NC(Cc1ccccc1)C(=O)O (stereo not drawn) (H-Gly-Gly-[ξF]-OH)
inactive: [4] 109 % of control | [5] 110 % of control | dose: 200.0 mg/kg/injection, schedule: Q01DX009 (ip), vehicle: saline 107 % of control | [6] 100 % of control | [7] 101 % of control | [8] 101 % of control

O=C(Cc1ccccc1)NC(CSSCC(NC(=O)Cc1ccccc1)C(=O)O)C(=O)O (stereo not drawn)
inactive: dose: 88.0 mg/kg/injection, schedule: Q01DX009 (ip), vehicle: Klucel (hydroxypropylcellulose) (HPC) 93 % of control | [4] 100 % of control | [9] 95 % of control | [5] 105 % of control and 97 % of control | dose: 132.0 mg/kg/injection, schedule: Q01DX009 (ip), vehicle: Klucel (hydroxypropylcellulose) (HPC) 90 % of control | [2] 100 % of control | [10] 98 % of control | [6] 107 % of control and 100 % of control | [7] 103 % of control | [11] 98 % of control | [8] 96 % of control and 100 % of control

Brc1cnc[nH]1
inactive: [12] 97 % of control | [13] 90 % of control | dose: 100.0 mg/kg/injection, schedule: Q01DX009 (ip), vehicle: water 102 % of control | dose: 100.0 mg/kg/injection, schedule: Q04DX002 (ip), vehicle: saline 100 % of control | dose: 200.0 mg/kg/injection, schedule: Q04DX002 (ip), vehicle: saline 95 % of control | dose: 400.0 mg/kg/injection, schedule: Q01DX009 (ip), vehicle: water 98 % of control | dose: 400.0 mg/kg/injection, schedule: Q04DX002 (ip), vehicle: saline 92 % of control

O=S(=O)(Cl)OC1C2COC(O2)C(OS(=O)(=O)Cl)C1OS(=O)(=O)Cl (stereo not drawn)
inactive: dose: 12.5 mg/kg/injection, schedule: Q04DX003 (ip), vehicle: saline with Tween-80 102 % of control | dose: 25.0 mg/kg/injection, schedule: Q04DX003 (ip), vehicle: saline with Tween-80 92 % of control | dose: 50.0 mg/kg/injection, schedule: Q04DX003 (ip), vehicle: saline with Tween-80 96 % of control

NC(N)=N/N=C/c1cc([N+](=O)[O-])ccc1OCC(=O)O
inactive: dose: 60.0 mg/kg/injection, schedule: Q01DX Z (oral), vehicle: methylcellulose (MC) 98 % of control | dose: 120.0 mg/kg/injection, schedule: Q01DX Z (oral), vehicle: methylcellulose (MC) 98 % of control | dose: 240.0 mg/kg/injection, schedule: Q01DX Z (ip), vehicle: methylcellulose (MC) 95 % of control | dose: 240.0 mg/kg/injection, schedule: Q01DX Z (oral), vehicle: methylcellulose (MC) 115 % of control | dose: 360.0 mg/kg/injection, schedule: Q01DX Z (ip), vehicle: methylcellulose (MC) 93 % of control | dose: 480.0 mg/kg/injection, schedule: Q01DX Z (ip), vehicle: methylcellulose (MC) 100 % of control | dose: 480.0 mg/kg/injection, schedule: Q01DX Z (oral), vehicle: methylcellulose (MC) 102 % of control

CCCCCCCCCCCCNC(=O)Nc1ccc(C)cc1C
inactive: [1] 98 % of control | dose: 100.0 mg/kg/injection, schedule: Q04DX003 (ip), vehicle: Klucel (hydroxypropylcellulose) (HPC) 95 % of control | [2] 94 % of control | dose: 200.0 mg/kg/injection, schedule: Q04DX003 (ip), vehicle: Klucel (hydroxypropylcellulose) (HPC) 96 % of control | [3] 96 % of control | dose: 400.0 mg/kg/injection, schedule: Q04DX003 (ip), vehicle: Klucel (hydroxypropylcellulose) (HPC) 100 % of control

Cc1cc(C)c(C)[nH]1
inactive: dose: 6.25 mg/kg/injection, schedule: Q01DX009 (ip), vehicle: water 104 % of control | dose: 12.5 mg/kg/injection, schedule: Q01DX009 (ip), vehicle: water 101 % of control | [12] 114 % of control | [13] 105 % of control and 121 % of control

CCOC(=O)c1ccc(NC(=O)CCl)cc1
inactive: dose: 25.0 mg/kg/injection, schedule: Q01DX015 (ip), vehicle: saline 98 % of control | dose: 50.0 mg/kg/injection, schedule: Q01DX001 (ip), vehicle: saline 106 % of control | dose: 50.0 mg/kg/injection, schedule: Q01DX015 (ip), vehicle: saline 100 % of control | [14] 104 % of control | dose: 100.0 mg/kg/injection, schedule: Q01DX015 (ip), vehicle: saline 98 % of control | [15] 101 % of control | [16] 97 % of control

O=C1/C(=C\c2ccc(O)cc2)Oc2cc(O)ccc21
inactive: dose: 100.0 mg/kg/injection, schedule: Q01DX001 (ip), vehicle: saline with Tween-80 98 % of control | dose: 200.0 mg/kg/injection, schedule: Q01DX001 (ip), vehicle: saline with Tween-80 87 % of control | dose: 400.0 mg/kg/injection, schedule: Q01DX001 (ip), vehicle: saline with Tween-80 90 % of control

CCCCSC1CCCC1
inactive: dose: 50.0 mg/kg/injection, schedule: Q01DX009 (ip), vehicle: acetone 98 % of control | [14] 89 % of control | dose: 100.0 mg/kg/injection, schedule: Q01DX009 (ip), vehicle: acetone 110 % of control | [15] 92 % of control

Cc1ccc(Cl)c(Br)c1
inactive: [14] 94 % of control | [15] 96 % of control | [16] 107 % of control

CC1(C)SC2C(NC(=O)COc3ccccc3)C(=O)N2C1C(=O)O (stereo not drawn) (tested in a mixture with another compound)
inactive: [9] 101 % of control | [10] 103 % of control | [11] 97 % of control

C=C1CCC(C)(C2(c3ccccc3)OCCO2)CC1
inactive: dose: 100.0 mg/kg/injection, schedule: Q04DX002 (ip), vehicle: saline with Tween-80 98 % of control | dose: 200.0 mg/kg/injection, schedule: Q04DX002 (ip), vehicle: saline with Tween-80 95 % of control | dose: 400.0 mg/kg/injection, schedule: Q04DX002 (ip), vehicle: saline with Tween-80 91 % of control

O=P(c1ccccc1)(N1CC1)N1CC1
inactive: dose: 7.5 mg/kg/injection, schedule: Q04DX003 (ip), vehicle: saline 100 % of control | dose: 15.0 mg/kg/injection, schedule: Q01DX001 (ip), vehicle: saline 102 % of control | dose: 15.0 mg/kg/injection, schedule: Q04DX003 (ip), vehicle: saline 95 % of control | dose: 30.0 mg/kg/injection, schedule: Q01DX001 (ip), vehicle: saline 107 % of control | dose: 30.0 mg/kg/injection, schedule: Q04DX003 (ip), vehicle: saline 98 % of control
